Source: patent EP0339681B1, “Antitumor antibiotic substance” (MEIJI SEIKA KAISHA LTD., priority 1988, dated 1989)
Converted amounts (≈) assume the structure as drawn.

What was measured:
[1] = tested on: infection; conditions: mouse, in vivo; cited from earlier work
[2] = tested on: P-388 mouse leukemia cells; test: Cytotoxic effect: 50% growth inhibition of P-388 cells; conditions: P388, 72 h, read-out: IC₅₀
[3] = tested on: P-388 tumor cells; test: Therapeutic test on mice with intraperitoneally transplanted P-388 tumor cells; assay type: in vivo, mouse; conditions: intraperitoneally once a day for two days
Description: To evaluate antitumor activity of the test compounds, the following therapeutic test was conducted.
P-388 tumor cells were transplanted into the abdominal cavity of a mouse. A test compound was intraperitoneally administered to the animal once a day for two days. The effect thus observed is expressed in ILS (%). [formula]

Row | Structure (SMILES) | therapeutic effect on infection [1] | IC50 [2] [µg/mL] | also measured
1 | COC(=O)C1(C)Nc2c(O)cc3c(c2C1=O)C(CO)CN3C(=O)c1cc2cc(OC)c(OC)c(OC)c2[nH]1 (stereo not drawn) | therapeutic effect on infection |  | 
2 | COC(=O)C1(C)Nc2c(OS(C)(=O)=O)cc3c(c2C1=O)C(COS(C)(=O)=O)CN3C(=O)c1cc2cc(OC)c(OC)c(OC)c2[nH]1 (stereo not drawn) [Compound 1] |  | 0.06 (≈ 0.088 µM) | ILS (%) ([3]; Dose 2.4 mg/kg): 40%; ILS (%) ([3]; Dose 7 mg/kg): 40%; ILS (%) ([3]; Dose 21 mg/kg): 54%
3 | COC(=O)C1(C)Nc2c(OS(C)(=O)=O)cc3c(c2C1=O)C(CO)CN3C(=O)c1cc2cc(OC)c(OC)c(OC)c2[nH]1 (stereo not drawn) [Compound 2] |  | 0.004 (≈ 0.00663 µM) | ILS (%) ([3]; Dose 0.25 mg/kg): 15%; ILS (%) ([3]; Dose 0.5 mg/kg): 40%; ILS (%) ([3]; Dose 1 mg/kg): 40%
4 | COC(=O)C1(C)Nc2c(OS(=O)(=O)c3ccc(C)cc3)cc3c(c2C1=O)C(CO)CN3C(=O)c1cc2cc(OC)c(OC)c(OC)c2[nH]1 (stereo not drawn) [Compound 3] |  | 2.5 (≈ 3.68 µM) | 
5 | COC(=O)C1(C)Nc2c(O)cc3c(c2C1=O)C(CCl)CN3C(=O)c1cc2cc(OC)c(OC)c(OC)c2[nH]1 (stereo not drawn) [SF2582A] | therapeutic effect on infection |  | 
6 | COC(=O)C1(C)Nc2c(O)cc3c(c2C1=O)CC(Cl)CN3C(=O)c1cc2cc(OC)c(OC)c(OC)c2[nH]1 (stereo not drawn) [SF2582B] | therapeutic effect on infection |  | 
